Assay results taken from US11384062B2 (CombiPhos Catalysts, Inc., priority 2017, dated 2022).
Values belong to the compound of their own block, whether it stands above or below them.

Assay: Metabolic stability in pooled rat liver microsomes
Details: for CLint scaled at 0.5 µM: pH 7.4, Clint
Protocol: Buffer solutions were prepared as follows: • a. Buffer A: 0.1 M monobasic potassium phosphate buffer containing 1.0 mM EDTA. • b. Buffer B: 0.1 M dibasic potassium phosphate buffer containing 1.0 mM EDTA. • c. Buffer C: 0.1 M potassium phosphate buffer containing 1.0 mM EDTA was adjusted to pH 7.4 by titrating 700 mL of Buffer B with Buffer A while monitoring with a pH meter. • 2. An NADPH stock solution (6 mM) was prepared by dissolving NADPH into Buffer C. • 3. Spiking solutions were prepared for the reference compound (ketanserin) and the test compounds as follows: • a. A 500 μM spiking solution of the reference compound (ketanserin) was generated by adding 10 μL of a 10 mM stock solution of ketanserin in DMSO into 190 μL acetonitrile. A 1.5 μM spiking solution in microsomes (0.75 mg/mL) was generated by adding 1.5 μL of the 500 μM spiking solution and 18.75 μL of 20 mg/mL rat liver microsomes into 479.75 μL of Buffer C while cooling with ice. • b. […] A 0.75 μM spiking solution in microsomes (0.75 mg/mL) was generated by adding 1.5 μL of the 250 μM spiking solution and 18.75 μL of 20 mg/mL rat liver microsomes into 479.75 μL of Buffer C while cooling with ice. • 4. 30 μL of 1.5 μM spiking solution containing 0.75 mg/mL microsomes solution was dispensed into assay plates designated for different time points (0 min, 5 min, 15 min, 30 min, and 45 min; or 0 min, 15 min, 30 min, 45 min, and 60 min as shown in Tables 1-5 below) while cooling with ice. • 5. For the 0 min time point assay plate, 135 μL of ACN containing IS followed immediately by 15 μL of the 6 mM NADPH stock solution were added to the wells of the 0 min assay plate. • 6. All assay plates other than the 0 min assay plate were pre-incubated at 37° C. for 5 min, and then 15 μL of the 6 mM NADPH stock solution was added to the wells of the assay plates to start the reaction and timing. At the appropriate time (5 min, 15 min, 30 min, 45 min, or 60 min), 135 μL of ACN containing IS was added to the wells of the corresponding assay plates, respectively, to stop the reaction. • 7. After quenching, the plates were shaken in a vibrator (IKA, MTS 2/4) for 10 min (600 rpm/min) and then centrifuged at 5594 g for 15 min (Thermo Multifuge×3R). • 8. After centrifugation, 50 μL of the supernatant from each well was transferred into a 96-well sample plate containing 50 μL of ultrapure water (Millipore, ZMQS50F01) for LC/MS analysis.

[1] = rat liver microsomes, 0 min, Table 1 (Example 16)
[2] = rat liver microsomes, 0 min, Table 2 (Example 17)
[3] = rat liver microsomes, 0 min, Table 3 (Example 18)
[4] = rat liver microsomes, 0 min, Table 5 (Example 20)
[5] = rat liver microsomes, Table 2 (Example 17)
[6] = rat liver microsomes, 15 min, Table 1 (Example 16)
[7] = rat liver microsomes, 15 min, Table 2 (Example 17)
[8] = rat liver microsomes, 15 min, Table 3 (Example 18)
[9] = rat liver microsomes, 15 min, Table 5 (Example 20)
[10] = rat liver microsomes, 30 min, Table 1 (Example 16)
[11] = rat liver microsomes, 30 min, Table 2 (Example 17)
[12] = rat liver microsomes, 30 min, Table 3 (Example 18)
[13] = rat liver microsomes, 30 min, Table 5 (Example 20)
[14] = rat liver microsomes, 45 min, Table 1 (Example 16)
[15] = rat liver microsomes, 45 min, Table 2 (Example 17)
[16] = rat liver microsomes, 45 min, Table 3 (Example 18)
[17] = rat liver microsomes, 45 min, Table 5 (Example 20)
[18] = rat liver microsomes, Table 1 (Example 16)
[19] = rat liver microsomes, Table 3 (Example 18)
[20] = rat liver microsomes, Table 5 (Example 20)
[21] = rat, microsomes, 0 h, 0.5 µM, pH 7.4
[22] = rat, microsomes, 0.25 h, 0.5 µM, pH 7.4
[23] = rat, microsomes, 0.5 h, 0.5 µM, pH 7.4
[24] = rat, microsomes, 0.75 h, 0.5 µM, pH 7.4
[25] = rat, microsomes, 1 h, 0.5 µM, pH 7.4
[26] = rat, microsomes, 0.5 µM, pH 7.4

Compound: NC(=O)c1cccc2cn(-c3ccc([C@@H]4CCCNC4)cc3)nc12 (racemic) [racemic niraparib]
- Percent Remaining (%) 0 min [1]: 100.00%
- Percent Remaining (%) 0 min [2]: 100%
- Percent Remaining (%) 0 min [3]: 100.00%
- Percent Remaining (%) 0 min [4]: 100.00%
- Percent Remaining (%) 5 min [5]: 116.67%
- Percent Remaining (%) 15 min [6]: 89.16%
- Percent Remaining (%) 15 min [7]: 95.83%
- Percent Remaining (%) 15 min [8]: 92.47%
- Percent Remaining (%) 15 min [9]: 77.23%
- Percent Remaining (%) 30 min [10]: 75.88%
- Percent Remaining (%) 30 min [11]: 83.18%
- Percent Remaining (%) 30 min [12]: 65.45%
- Percent Remaining (%) 30 min [13]: 65.45%
- Percent Remaining (%) 45 min [14]: 69.11%
- Percent Remaining (%) 45 min [15]: 81.48%
- Percent Remaining (%) 45 min [16]: 51.57%
- Percent Remaining (%) 45 min [17]: 53.43%
- Percent Remaining (%) 60 min (rat liver microsomes, 60 min, Table 1 (Example 16)): 60.43%
- Percent Remaining (%) 60 min (rat liver microsomes, 60 min, Table 3 (Example 18)): 50.17%
- Percent Remaining (%) 60 min (rat liver microsomes, 60 min, Table 5 (Example 20)): 42.23%
- Clint [18]: 30.15 mL/min/kg
- T1/2 [18]: 1.373 h
- Clint [5]: 24.43 mL/min/kg
- T1/2 [5]: 1.6945 h
- Clint [19]: 46.91 mL/min/kg
- T1/2 [19]: 0.8825 h
- Clint [20]: 50.00 mL/min/kg
- T1/2 [20]: 0.828 h

Compound: [2H]c1c([2H])c(C2([2H])C([2H])([2H])NC([2H])([2H])C([2H])([2H])C2([2H])[2H])c([2H])c([2H])c1-n1cc2cccc(C(N)=O)c2n1 (centres unmarked) [Example 2, 2-(4-(piperidin-3-yl-2,2,3,4,4,5,5,6,6-d9)phenyl-2,3,5,6-d4)-2H-indazole-7-carboxamide]
- Percent Remaining (%) 0 min [21]: 100.00%
- Percent Remaining (%) 15 min [22]: 93.04%
- Percent Remaining (%) 30 min [23]: 80.95%
- Percent Remaining (%) 45 min [24]: 75.60%
- Percent Remaining (%) 60 min [25]: 69.05%
- CLint scaled at 0.5 µM (rat, microsomes): 22.7 mL/min/kg
- half-life at 0.5 µM (rat, microsomes, pH 7.4, T1/2): 1.83 h

Compound: [2H]c1c([2H])c(C2([2H])CCCNC2[2H])c([2H])c([2H])c1-n1cc2cccc(C(N)=O)c2n1 (centres unmarked) [Example 9, 2-(4-(piperidin-3-yl-2,3-d2)phenyl-2,3,5,6-d4)-2H-indazole-7-carboxamide]
- increase in rat liver microsome metabolic stability (rat, 0.5 µM, pH 7.4): 64%
- Percent Remaining (%) 0 min [21]: 100.00%
- Percent Remaining (%) 15 min [22]: 98.91%
- Percent Remaining (%) 30 min [23]: 83.70%
- Percent Remaining (%) 45 min [24]: 79.62%
- Percent Remaining (%) 60 min [25]: 75.27%
- CLint scaled at 0.5 µM (rat, microsomes): 18.8 mL/min/kg
- half-life at 0.5 µM (rat, microsomes, pH 7.4, T1/2): 2.21 h

Compound: [2H]c1c([2H])c(-n2nc3c(C(N)=O)cccc3c2[2H])c([2H])c([2H])c1[C@@H]1CCCNC1 [Example 15, (S)-2-(4-(piperidin-3-yl)phenyl-2,3,5,6-d4)-2H-indazole-3-d-7-carboxamide]
- Percent Remaining (%) 0 min [21]: 100.00%
- Percent Remaining (%) 15 min [22]: 77.88%
- Percent Remaining (%) 30 min [23]: 67.35%
- Percent Remaining (%) 45 min [24]: 56.14%
- Percent Remaining (%) 60 min [25]: 44.60%
- CLint scaled at 0.5 µM (rat, microsomes): 46.4 mL/min/kg
- half-life at 0.5 µM (rat, microsomes, pH 7.4, T1/2): 0.892 h

Compound: O=C(c1ccc(F)cc1)C1CCN(CCn2c(=O)[nH]c3ccccc3c2=O)CC1 [ketanserin]
- Percent Remaining (%) 0 min [1]: 100.00%
- Percent Remaining (%) 0 min [2]: 100%
- Percent Remaining (%) 0 min [3]: 100.00%
- Percent Remaining (%) 0 min (rat liver microsomes, 0 min, Table 4 (Example 19)): 100.00%
- Percent Remaining (%) 0 min [4]: 100.00%
- Percent Remaining (%) 5 min [18]: 65.84%
- Percent Remaining (%) 5 min [5]: 94.13%
- Percent Remaining (%) 5 min [19]: 78.33%
- Percent Remaining (%) 5 min (rat liver microsomes, Table 4 (Example 19)): 78.33%
- Percent Remaining (%) 5 min [20]: 82.83%
- Percent Remaining (%) 15 min [6]: 41.07%
- Percent Remaining (%) 15 min [7]: 61.07%
- Percent Remaining (%) 15 min [8]: 45.04%
- Percent Remaining (%) 15 min (rat liver microsomes, 15 min, Table 4 (Example 19)): 45.04%
- Percent Remaining (%) 15 min [9]: 51.29%
- Percent Remaining (%) 30 min [10]: 17.68%
- Percent Remaining (%) 30 min [11]: 32.18%
- Percent Remaining (%) 30 min [12]: 21.55%
- Percent Remaining (%) 30 min (rat liver microsomes, 30 min, Table 4 (Example 19)): 21.55%
- Percent Remaining (%) 30 min [13]: 25.82%
- Percent Remaining (%) 45 min [14]: 9.13%
- Percent Remaining (%) 45 min [15]: 21.24%
- Percent Remaining (%) 45 min [16]: 10.67%
- Percent Remaining (%) 45 min (rat liver microsomes, 45 min, Table 4 (Example 19)): 10.67%
- Percent Remaining (%) 45 min [17]: 15.08%
- CLint scaled at 0.5 µM (rat, pooled rat liver microsomes, rat liver microsomes, Table 1 (Example 16)): 188 mL/min/kg
- CLint scaled at 0.5 µM (rat, pooled rat liver microsomes, rat liver microsomes, Table 2 (Example 17)): 142 mL/min/kg
- CLint scaled at 0.5 µM (rat, pooled rat liver microsomes, rat liver microsomes, Table 3 (Example 18)): 179 mL/min/kg
- CLint scaled at 0.5 µM (rat, pooled rat liver microsomes, rat liver microsomes, Table 4 (Example 19)): 179 mL/min/kg
- CLint scaled at 0.5 µM (rat, pooled rat liver microsomes, rat liver microsomes, Table 5 (Example 20)): 154 mL/min/kg
- half-life at 0.5 µM (rat, pooled rat liver microsomes, pH 7.4, T1/2, rat liver microsomes, Table 1 (Example 16)): 0.22 h
- half-life at 0.5 µM (rat, pooled rat liver microsomes, pH 7.4, T1/2, rat liver microsomes, Table 2 (Example 17)): 0.292 h
- half-life at 0.5 µM (rat, pooled rat liver microsomes, pH 7.4, T1/2, rat liver microsomes, Table 3 (Example 18)): 0.231 h
- half-life at 0.5 µM (rat, pooled rat liver microsomes, pH 7.4, T1/2, rat liver microsomes, Table 4 (Example 19)): 0.231 h
- half-life at 0.5 µM (rat, pooled rat liver microsomes, pH 7.4, T1/2, rat liver microsomes, Table 5 (Example 20)): 0.269 h

Results, then the compound that gave them:

- Percent Remaining (%) 0 min [21]: 100.00%
- Percent Remaining (%) 15 min [22]: 108.00%
- Percent Remaining (%) 30 min [23]: 89.02%
- Percent Remaining (%) 45 min [24]: 81.33%
- Percent Remaining (%) 60 min [25]: 80.31%
- CLint scaled at 0.5 µM (rat, microsomes): 17.2 mL/min/kg
- half-life at 0.5 µM (rat, microsomes, pH 7.4, T1/2): 2.4 h
Compound: [2H]C1NC([2H])C([2H])(c2ccc(-n3cc4cccc(C(N)=O)c4n3)cc2)C([2H])C1[2H] (centres unmarked) [Example 5, 2-(4-(piperidin-3-yl-2,3,4,5,6-d5)phenyl)-2H-indazole-7-carboxamide]

- Percent Remaining (%) 0 min [21]: 100%
- Percent Remaining (%) 5 min [26]: 112%
- Percent Remaining (%) 15 min [22]: 100%
- Percent Remaining (%) 30 min [23]: 88.27%
- Percent Remaining (%) 45 min [24]: 85.02%
- CLint scaled at 0.5 µM (rat, microsomes): 18.8 mL/min/kg
- half-life at 0.5 µM (rat, microsomes, pH 7.4, T1/2): 2.2 h
Compound: [2H]c1c([2H])c(-n2cc3cccc(C(N)=O)c3n2)c([2H])c([2H])c1C1C([2H])NC([2H])C([2H])C1[2H] (centres unmarked) [Example 6]

- Percent Remaining (%) 0 min [21]: 100%
- Percent Remaining (%) 5 min [26]: 112.62%
- Percent Remaining (%) 15 min [22]: 94.47%
- Percent Remaining (%) 30 min [23]: 84.9%
- Percent Remaining (%) 45 min [24]: 83.06%
- CLint scaled at 0.5 µM (rat, microsomes): 21.1 mL/min/kg
- half-life at 0.5 µM (rat, microsomes, pH 7.4, T1/2): 1.96 h
Compound: [2H]C1NC([2H])C(c2ccc(-n3cc4cccc(C(N)=O)c4n3)cc2)C([2H])C1[2H] (centres unmarked) [Example 7, 2-(4-(piperidin-3-yl-2,4,5,6-d4)phenyl)-2H-indazole-7-carboxamide]

- Percent Remaining (%) 0 min [21]: 100.00%
- Percent Remaining (%) 15 min [22]: 91.49%
- Percent Remaining (%) 30 min [23]: 79.13%
- Percent Remaining (%) 45 min [24]: 80.74%
- Percent Remaining (%) 60 min [25]: 56.02%
- CLint scaled at 0.5 µM (rat, microsomes): 30.7 mL/min/kg
- half-life at 0.5 µM (rat, microsomes, pH 7.4, T1/2): 1.35 h
Compound: [2H]c1c([2H])c(-n2cc3cccc(C(N)=O)c3n2)c([2H])c([2H])c1C1CCCNC1 (centres unmarked) [Example 8, 2-(4-(piperidin-3-yl)phenyl-2,3,5,6-d4)-2H-indazole-7-carboxamide]
